Laboratory results reported in ChEMBL document CHEMBL3396992, “Synthesis and biological evaluation of pyrazolylthiazole carboxylic acids as potent anti-inflammatory-antimicrobial agents” (2015).
≈ marks a conversion by molar mass, not a printed value. Calls of active or inactive are those of the source. The calls are words filed in the database; no cut-off is given here.

Columns and labels:
Rattus norvegicus [1] = assay: Antiinflammatory activity against carrageenan-induced paw edema male Wistar albino rat assessed as edema volume at 50 mg/kg, po administered 30 mins prior to carrageenan-challenge measured after 1 hr (reference value: 1.11 +/- 0.12 mL); format: functional
Rattus norvegicus [2] = assay: Antiinflammatory activity against carrageenan-induced paw edema male Wistar albino rat assessed as edema volume at 50 mg/kg, ip administered 30 mins prior to carrageenan-challenge measured after 2 hrs (reference value: 1.21 +/- 0.16 mL); format: functional; settings: route intraperitoneal
Rattus norvegicus [3] = assay: Antiinflammatory activity against carrageenan-induced paw edema male Wistar albino rat assessed as edema volume at 50 mg/kg, ip administered 30 mins prior to carrageenan-challenge measured after 3 hrs (reference value: 1.73 +/- 0.09 mL); format: functional; settings: route intraperitoneal
Rattus norvegicus [4] = assay: Antiinflammatory activity against carrageenan-induced paw edema male Wistar albino rat assessed as edema volume at 50 mg/kg, ip administered 30 mins prior to carrageenan-challenge measured after 4 hrs (reference value: 1.88 +/- 0.20 mL); format: functional; settings: route intraperitoneal
Rattus norvegicus [5] = assay: Antiinflammatory activity against carrageenan-induced paw edema male Wistar albino rat at 50 mg/kg, ip administered 30 mins prior to carrageenan-challenge measured after 1 hr relative to control; format: functional; settings: route intraperitoneal
Rattus norvegicus [6] = assay: Antiinflammatory activity against carrageenan-induced paw edema male Wistar albino rat at 50 mg/kg, ip administered 30 mins prior to carrageenan-challenge measured after 2 hrs relative to control; format: functional; settings: route intraperitoneal
Rattus norvegicus [7] = assay: Antiinflammatory activity against carrageenan-induced paw edema male Wistar albino rat at 50 mg/kg, ip administered 30 mins prior to carrageenan-challenge measured after 3 hrs relative to control; format: functional; settings: route intraperitoneal
Rattus norvegicus [8] = assay: Antiinflammatory activity against carrageenan-induced paw edema male Wistar albino rat at 50 mg/kg, ip administered 30 mins prior to carrageenan-challenge measured after 4 hrs relative to control; format: functional; settings: route intraperitoneal
Staphylococcus aureus [9] = assay: Antimicrobial activity against Staphylococcus aureus MTCC 96 assessed as growth inhibition at 4 mg/ml after 24 hrs by agar well diffusion method; format: functional; settings: for zone of inhibition at 4000 µg/mL: MTCC 96, 24 h, read-out: DIZ
Staphylococcus aureus [10] = assay: Antimicrobial activity against Staphylococcus aureus MTCC 96 assessed as growth inhibition after 24 hrs by agar well diffusion method; format: functional
Bacillus subtilis [11] = assay: Antimicrobial activity against Bacillus subtilis MTCC 121 assessed as growth inhibition at 4 mg/ml after 24 hrs by agar well diffusion method; format: functional; settings: for zone of inhibition at 4000 µg/mL: MTCC 121, 24 h, read-out: DIZ
Bacillus subtilis [12] = assay: Antimicrobial activity against Bacillus subtilis MTCC 121 assessed as growth inhibition after 24 hrs by agar well diffusion method; format: functional
Escherichia coli = assay: Antimicrobial activity against Escherichia coli MTCC 1652 assessed as growth inhibition at 4 mg/ml after 24 hrs by agar well diffusion method; format: functional, organism-based
Saccharomyces cerevisiae [13] = assay: Antimicrobial activity against Saccharomyces cerevisiae MTCC 170 assessed as growth inhibition at 4 mg/ml after 24 hrs by agar well diffusion method; format: functional; settings: for zone of inhibition at 4000 µg/mL: MTCC 170, 24 h, read-out: DIZ
Saccharomyces cerevisiae [14] = assay: Antimicrobial activity against Saccharomyces cerevisiae MTCC 170 assessed as growth inhibition after 24 hrs by agar well diffusion method; format: functional
Candida albicans [15] = assay: Antimicrobial activity against Candida albicans MTCC 3017 assessed as growth inhibition at 4 mg/ml after 24 hrs by agar well diffusion method; format: functional; settings: MTCC 3017, 24 h, read-out: DIZ
Candida albicans [16] = assay: Antimicrobial activity against Candida albicans MTCC 3017 assessed as growth inhibition after 24 hrs by agar well diffusion method; format: functional; settings: MTCC 3017, 24 h
Pseudomonas aeruginosa = settings: MTCC 741, 4 mg/ml
Description: Antimicrobial activity against Pseudomonas aeruginosa MTCC 741 assessed as growth inhibition at 4 mg/ml after 24 hrs by agar well diffusion method

Structure (SMILES)	Activity (Rattus norvegicus [1])	Activity (Rattus norvegicus [2])	Activity (Rattus norvegicus [3])	Activity (Rattus norvegicus [4])	Activity (Rattus norvegicus [5])	Activity (Rattus norvegicus [6])	Activity (Rattus norvegicus [7])	Activity (Rattus norvegicus [8])	diameter of the inhibition zone (DIZ) (Staphylococcus aureus [9])	MIC (Staphylococcus aureus [10])	diameter of the inhibition zone (DIZ) (Escherichia coli)	zone of inhibition at 4000 µg/mL (Saccharomyces cerevisiae [13])	MIC (Saccharomyces cerevisiae [14]; MTCC 170, 24 h)	zone of inhibition at 4000 µg/mL (Candida albicans [15])	MIC (Candida albicans [16])	DIZ (Pseudomonas aeruginosa)	zone of inhibition at 4000 µg/mL (Staphylococcus aureus [9])	MIC (Staphylococcus aureus [10]; MTCC 96, 24 h)	zone of inhibition at 4000 µg/mL (Bacillus subtilis [11])	MIC (Bacillus subtilis [12]; MTCC 121, 24 h)	other results
O=C(O)c1sc(-c2cn(-c3ccccc3)nc2-c2ccc(Cl)cc2)nc1-c1ccc(F)cc1	0.29 mL	0.33 mL	0.49 mL	0.38 mL	73.87%	72.72%	71.67%	79.78%	inactive	inactive	inactive	24.6 mm	12.5 µg/mL (≈ 26.3 µM)	12 mm	50 µg/mL (≈ 105 µM)	inactive	–	–	–	–	diameter of the inhibition zone (DIZ) (Bacillus subtilis [11]): inactive; MIC (Bacillus subtilis [12]): inactive
O=C(O)c1sc(-c2cn(-c3ccccc3)nc2-c2ccc(Cl)cc2)nc1-c1ccccc1	0.32 mL	0.46 mL	0.69 mL	0.54 mL	71.17%	61.98%	60.11%	71.27%	–	–	inactive	26.6 mm	6.25 µg/mL (≈ 13.6 µM)	24.6 mm	6.25 µg/mL (≈ 13.6 µM)	inactive	22.6 mm	25 µg/mL (≈ 54.6 µM)	22.6 mm	12.5 µg/mL (≈ 27.3 µM)	–
CCOC(=O)c1sc(-c2cn(-c3ccccc3)nc2-c2ccc(OC)cc2)nc1-c1ccc(F)cc1	0.18 mL	0.18 mL	0.31 mL	0.37 mL	83.78%	85.12%	82.08%	80.31%	inactive	inactive	inactive	–	–	24.6 mm	12.5 µg/mL (≈ 25 µM)	inactive	–	–	20.6 mm	25 µg/mL (≈ 50 µM)	diameter of the inhibition zone (DIZ) (Saccharomyces cerevisiae [13]): inactive; MIC (Saccharomyces cerevisiae [14]): inactive
O=C(O)c1sc(-c2cn(-c3ccccc3)nc2-c2ccc(F)cc2)nc1-c1ccccc1	0.14 mL	0.22 mL	0.37 mL	0.18 mL	87.38%	81.81%	78.61%	90.42%	–	–	inactive	> 20 mm	50 µg/mL (≈ 113 µM)	21.3 mm	25 µg/mL (≈ 56.6 µM)	inactive	20.3 mm	25 µg/mL (≈ 56.6 µM)	18.3 mm	25 µg/mL (≈ 56.6 µM)	–
CCOC(=O)c1sc(-c2cn(-c3ccccc3)nc2-c2ccccc2)nc1-c1ccc(F)cc1	0.29 mL	0.22 mL	0.31 mL	0.42 mL	73.87%	81.81%	82.08%	88.29%	inactive	inactive	inactive	–	–	18.6 mm	25 µg/mL (≈ 53.2 µM)	inactive	–	–	–	–	diameter of the inhibition zone (DIZ) (Bacillus subtilis [11]): inactive; MIC (Bacillus subtilis [12]): inactive; diameter of the inhibition zone (DIZ) (Saccharomyces cerevisiae [13]): inactive; MIC (Saccharomyces cerevisiae [14]): inactive
COc1ccc(-c2nn(-c3ccccc3)cc2-c2nc(-c3ccc(OC)cc3)c(C(=O)O)s2)cc1	0.13 mL	0.24 mL	0.2 mL	0.19 mL	82.88%	86.77%	88.43%	89.89%	–	–	inactive	13.3 mm	50 µg/mL (≈ 103 µM)	13 mm	50 µg/mL (≈ 103 µM)	inactive	16.3 mm	50 µg/mL (≈ 103 µM)	16.3 mm	50 µg/mL (≈ 103 µM)	–
CCOC(=O)c1sc(-c2cn(-c3ccccc3)nc2-c2ccccc2)nc1-c1ccccc1	0.1 mL	0.3 mL	0.28 mL	0.24 mL	90.99%	75.2%	83.81%	87.23%	–	–	inactive	–	–	15.3 mm	50 µg/mL (≈ 111 µM)	inactive	14.3 mm	50 µg/mL (≈ 111 µM)	11 mm	50 µg/mL (≈ 111 µM)	diameter of the inhibition zone (DIZ) (Saccharomyces cerevisiae [13]): inactive; MIC (Saccharomyces cerevisiae [14]): inactive
CCOC(=O)c1sc(-c2cn(-c3ccccc3)nc2-c2ccc(F)cc2)nc1-c1ccc(OC)cc1	0.22 mL	0.27 mL	0.39 mL	0.32 mL	80.18%	79.33%	77.45%	82.97%	inactive	inactive	inactive	–	–	15.6 mm	50 µg/mL (≈ 100 µM)	inactive	–	–	13.3 mm	50 µg/mL (≈ 100 µM)	diameter of the inhibition zone (DIZ) (Saccharomyces cerevisiae [13]): inactive; MIC (Saccharomyces cerevisiae [14]): inactive
O=C(O)c1sc(-c2cn(-c3ccccc3)nc2-c2ccc(F)cc2)nc1-c1ccc(Cl)cc1	0.33 mL	0.64 mL	0.75 mL	0.37 mL	70.27%	47.1%	56.14%	80.31%	–	–	inactive	20.6 mm	25 µg/mL (≈ 52.5 µM)	20.6 mm	25 µg/mL (≈ 52.5 µM)	inactive	21.6 mm	25 µg/mL (≈ 52.5 µM)	18.3 mm	25 µg/mL (≈ 52.5 µM)	–
CCOC(=O)c1sc(-c2cn(-c3ccccc3)nc2-c2ccc(Cl)cc2)nc1-c1ccc(F)cc1	0.18 mL	0.47 mL	0.5 mL	0.19 mL	83.78%	61.15%	71.09%	89.89%	–	–	inactive	–	–	17.6 mm	50 µg/mL (≈ 99.2 µM)	inactive	12 mm	50 µg/mL (≈ 99.2 µM)	13.3 mm	50 µg/mL (≈ 99.2 µM)	diameter of the inhibition zone (DIZ) (Saccharomyces cerevisiae [13]): inactive; MIC (Saccharomyces cerevisiae [14]): inactive
COc1ccc(-c2nc(-c3cn(-c4ccccc4)nc3-c3ccc(Cl)cc3)sc2C(=O)O)cc1	0.15 mL	0.19 mL	0.16 mL	0.21 mL	86.48%	89.29%	90.75%	88.82%	inactive	inactive	inactive	12 mm	50 µg/mL (≈ 102 µM)	25.3 mm	12.5 µg/mL (≈ 25.6 µM)	inactive	–	–	18.3 mm	25 µg/mL (≈ 51.2 µM)	–
CCOC(=O)c1sc(-c2cn(-c3ccccc3)nc2-c2ccc(Cl)cc2)nc1-c1ccc(OC)cc1	0.1 mL	0.35 mL	0.25 mL	0.21 mL	90.99%	71.07%	85.54%	88.92%	inactive	inactive	inactive	–	–	15.3 mm	50 µg/mL (≈ 96.9 µM)	inactive	–	–	15.3 mm	50 µg/mL (≈ 96.9 µM)	diameter of the inhibition zone (DIZ) (Saccharomyces cerevisiae [13]): inactive; MIC (Saccharomyces cerevisiae [14]): inactive
